Data taken from patent US20250345459A1, “COMPOUND OR SALT THEREOF, LIPID COMPOSITION, PHARMACEUTICAL COMPOSITION, AND DELIVERY CARRIER” (FUJIFILM Corporation, priority 2023, published 2025).

Legend:
[1] = test system: EPO mRNA; test: mRNA encapsulation rate of mRNA lipid nanoparticles; assay type: physicochemical; settings: LNP with neutral lipid DSPC; mixed solution PBS; Lipid/Nucleic acid (wt/wt) 20
Description: (§1) The compounds described in Table 1, the neutral lipid, cholesterol (product name: Cholesterol HP; NIPPON FINE CHEMICAL CO., LTD.), and 1,2-dimyristoyl-rac-glycero-3-(methylpolyoxyethylene 2000) (hereinafter, called DMG-PEG2000) (product name: SUNBRIGHT® GM-020; NOF corporation) were dissolved in ethanol at a molar ratio of ionized lipid:neutral lipid:cholesterol:DMG-PEG2000=50:10:38.5:1.5 mol % such that the total lipid concentration was 12.5 mmol/L, to obtain an oil phase.
(§2) As the neutral lipid, 1,2-distearoyl-sn-glycero-3-phosphocholine (product name: COATSOME® MC-8080; NOF corporation) (hereinafter, DSPC), or L-α-dioleoylphosphatidylethanolamine (hereinafter, DOPE) (product name: COATSOME® MC-8181; NOF corporation) was used.
(§3) EPO mRNA (product name: CleanCap EPO mRNA (5 moU); TriLink) was diluted with 50 mmol/L citrate buffer having a pH 4.0 such that the weight ratio of total lipid concentration to mRNA concentration is about 20:1 to 64:1, thereby obtaining a water phase. Then, the water phase and the oil phase were mixed together using NanoAssemblr (Precision NanoSystems) such that the volume ratio of water phase:oil phase was 3:1. The mixed solution was diluted 2-fold with any of phosphate buffered physiological saline (PBS), water, or a 20 mmol/L Tris buffer solution (pH 7.4) to obtain a dispersion liquid of mRNA lipid nanoparticles. The dispersion liquid was dialyzed with 20 mmol/L Tris buffer solution (pH 7.4) containing 8% sucrose using a dialysis cassette (Slide-A-Lyzer G2, MWCO: 10 kD, Thermo Fisher Scientific) to remove ethanol, thereby obtaining EPO mRNA-encapsulating lipid nanoparticles.
EPO mRNA was diluted with MilliQ water to prepare a diluted sample in 2-fold dilution series from 100 µg/mL to […], and a calibration curve solution was prepared. 50 μL of the calibration curve solution or the mRNA lipid nanoparticles was mixed with 450 μL of methanol to prepare a measurement solution.
The absorbance of each measurement solution at 260 nm and 330 nm was measured using a UV plate reader (Multiskan Go, Thermo Fisher Scientific), the absorbance at 330 nm was subtracted from the absorbance at 260 nm, and the result was defined as the absorbance of each measurement solution. The total […] nucleic acid concentration was calculated from the calibration curve using the absorbance of each sample measurement solution.
The concentration of the outer water phase nucleic acid was quantified by a standard addition method using a QuanT-iT RiboGreen RNA Assay Kit (Thermo Fisher Scientific). First, a 20× TE buffer included in the above kit was diluted with water, thereby obtaining a 1×TE buffer. TE represents Tris/EDTA (ethylenediaminetetraacetic acid). EPO mRNA was diluted with a TE buffer such that the final concentration was 0 to 400 ng/mL to prepare a nucleic acid diluted series. 10 μL of mRNA lipid nanoparticles diluted 5-fold with TE buffer and 90 µL of a nucleic acid dilution series were mixed in a 96-well plate, 100 μL of a Ribogreen reagent diluted 200-fold with TE buffer was added to each well, and then fluorescence (excitation wavelength: 485 nm, fluorescence wavelength: 535 nm) was measured using a fluorescence plate reader (Infinite 200 Pro M nano+, TECAN). From the obtained results, the outer water phase nucleic acid concentration of each measurement solution was calculated according to the standard addition method.
By using the quantification results of the total mRNA concentration and the mRNA concentration in the outer water phase that were obtained through the above steps, the mRNA encapsulation rate of the mRNA lipid nanoparticles was calculated according to the following Equation. […]

[2] = Particle size of EPO mRNA-encapsulating lipid nanoparticles; assay type: physicochemical; settings: LNP with neutral lipid DSPC; mixed solution PBS; Lipid/Nucleic acid (wt/wt) 20
Description: as §1, §2, §3
The particle size of the mRNA-encapsulating lipid nanoparticles was measured by 5-fold diluting the dispersion liquid of lipid nanoparticle with phosphate buffered physiological saline (PBS) using a particle size measurement device NanoSaqla (Otsuka Electronics Co., Ltd.).

[3] = test system: ICR mice; test: EPO protein expression in mice after intravenous EPO mRNA lipid nanoparticles; assay type: in vivo; settings: mRNA 0.1 mg/kg, plasma 6 hours after administration, neutral lipid DSPC, Lipid/Nucleic acid (wt/wt) 20, Comparative Example 1 is 1
Description: as §1, §2, §3
The dispersion liquid of mRNA lipid nanoparticles prepared in above <Preparation of EPO mRNA-encapsulating lipid nanoparticles> was intravenously administered to ICR mice at a mRNA dosage of 0.1 mg/kg. 6 hours after the administration, blood was collected from the caudal vena cava, thereby obtaining plasma. The human EPO […] was quantified by using the obtained blood plasma and Erythropoietin (EPO) Human Elisa Kit (Abcam.plc). The quantitative value is described as a relative amount of EPO protein in a case where Comparative Example 1 is 1.

SMILES | Nucleic acid encapsulation rate (%) [1] | Particle size (nm) [2] | Relative amount of EPO protein (to Comparative Example 1) [3]
CCCCCCCCN(CCCCC(=O)OCC(CCCCC)CCCCC)C(=O)OCCN(CCCCN(CC)CC)CCOC(=O)N(CCCCCCCC)CCCCC(=O)OCC(CCCCC)CCCCC [Example 36, Bis(2-pentylheptyl) 11-(4-(diethylamino)butyl)-6,16-dioctyl-7,15-dioxo-8,14-dioxa-6,11,16-triazahenicosanedioate] | 93% | 145 nm | 6.40
CCCCCCCCN(CCCCC(=O)OCC(CCCCCC)CCCCCC)C(=O)OCCN(CCCN(CC)CC)CCOC(=O)N(CCCCCCCC)CCCCC(=O)OCC(CCCCCC)CCCCCC [Example 37, Bis(2-hexyloctyl) 11-(3-(diethylamino)propyl)-6,16-dioctyl-7,15-dioxo-8,14-dioxa-6,11,16-triazahenicosanedioate] | 93% | 136 nm | 11.39
CCCCCCCCN(CCCCC(=O)OCC(CCCCCC)CCCCCC)C(=O)OCCN(CCCCN(CC)CC)CCOC(=O)N(CCCCCCCC)CCCCC(=O)OCC(CCCCCC)CCCCCC [Example 38, bis(2-hexyloctyl) 11-(4-(diethylamino)butyl)-6,16-dioctyl-7,15-dioxo-8,14-dioxa-6,11,16-triazahenicosanedioate] | 93% | 137 nm | 9.99
CCCCCCCCN(CCCCC(=O)OCCCCCCC)C(=O)OCCN(CCOC(=O)N(CCCCCCCC)CCCCC(=O)OCC(CCCCCC)CCCCCC)CCN(CC)CC [Example 40, 1-Heptyl 21-(2-hexyloctyl) 11-(2-(diethylamino)ethyl)-6,16-dioctyl-7,15-dioxo-8,14-dioxa-6,11,16-triazahenicosanedioate] | 74% | 162 nm | 8.10
CCCCCCCCOC(=O)CCCCN(CCCCCCCC)C(=O)OCCN(CCOC(=O)N(CCCCCCCC)CCCCC(=O)OCC(CCCCCC)CCCCCC)CCN(CC)CC [Example 42, 1-(2-Hexyloctyl) 21-octyl 11-(2-(diethylamino)ethyl)-6,16-dioctyl-7,15-dioxo-8,14-dioxa-6,11,16-triazahenicosanedioate] | 82% | 154 nm | 6.39
CCCCCCCN(CCCCCC(=O)OCC(CCCCC)CCCCC)C(=O)OCCN(CCOC(=O)N(CCCCCCC)CCCCCC(=O)OCC(CCCCC)CCCCC)CCN(CC)CC [Example 45, Bis(2-pentylheptyl) 12-(2-(diethylamino)ethyl)-7,17-diheptyl-8,16-dioxo-9,15-dioxa-7,12,17-triazatricosanedioate] | 95% | 84 nm | 2.19
CCCCCC(CCCCC)COC(=O)CCCCCN(CCCCC)C(=O)OCCN(CCOC(=O)N(CCCCC)CCCCCC(=O)OCC(CCCCC)CCCCC)CCN(CC)CC [Example 46, Bis(2-pentylheptyl) 12-(2-(diethylamino)ethyl)-8,16-dioxo-7,17-dipentyl-9,15-dioxa-7,12,17-triazatricosanedioate] | 93% | 104 nm | 1.54
CCCCCCC(CCCCCC)COC(=O)CCCCCN(CCCC)C(=O)OCCN(CCOC(=O)N(CCCC)CCCCCC(=O)OCC(CCCCCC)CCCCCC)CCN(CC)CC [Example 47, Bis(2-hexyloctyl) 7,17-dibutyl-12-(2-(diethylamino)ethyl)-8,16-dioxo-9,15-dioxa-7,12,17-triazatricosanedioate] | 91% | 114 nm | 1.46
